Broadly, the Kd is the equilibrium constant for the complex coming apart. Low values mean higher affinity, high ones lower affinity.

Assay [1] concerns rat peripheral blood leukocytes. Put plainly: Rat chemokine-induced PBMC migration assay. The format is cell-based. Conditions: for EC50 / Emax: Rattus norvegicus, Leukocyte, Table 3; for EC50: read-out: Rat chemokine-induced PBMC migration assay ED50; for Emax: read-out: Rat chemokine-induced PBMC migration assay Max effect (%); for "Classical" : "BSCI" potency ratio Rat: Table 3, rat PBMC migration ED50 versus rat pituicyte GH suppression ED50.

In a further assay the test system is Jurkat-D3B cells. Put plainly: SDF-1α induced migration of Jurkat-D3B cells expressing sstr2. The format is cell-based, human. Here is the method: Methods: Total mRNA was prepared from Panc-1 cells (a human pancreas cell line which is well known to express high levels of sstr2) using the RNAqueous 4PCR kit (Ambion, Cat code #1914) in accordance with the manufacturer's instructions. The mRNA was then reverse transcribed (using the RETROscript kit; Ambio) to yield a cDNA preparation. A full length cDNA of the sstr2 gene was then obtained by PCR (using a Peltier PTC-200 thermal cycler using the following cycle times and conditions: 94°C for 2 min, followed by 30 cycles of 94°C, for 30 sec, 55°C for 30sec, 72°C for 1 min and finally 72°C for 10 min), and isolated by preparative gel electrophoresis. The sequence of the sstr2 cDNA was confirmed by sequencing. The sstr2 cDNA was treated with EcoRI and Xhol to generate sticky ends, which allowed directional cloning into the polylinker of the plasmid pcDNA3.1+ (Invitrogen) followed by ligation (10µl ligation reactions were run with 400 T4 DNA ligase (New England Biolabs) and the maximal amounts of DNA with an insert:plasmid ratio of 3:1 in ligase buffer incubated overnight at 13°C). The resulting vector (see Fig. 13) was used to transform XL-10 Ultracompetent cells (Stratagene) using standard techniques. Plasmid DNA was prepared using a MiniPrep kit (Wizard Plus SV Minipreps DNA purification System; Promega) in accordance with the manufacturer's instructions for transfection into Jurkat T cells.
Jurkat T cells were grown in RPMI + 10% foetal calf serum (FCS), and subcultured by 1:3 dilution in fresh medium every 4 days. Jurkat T cells in logarithmic growth phase 48 hours after subculture were washed by centrifugation and resuspended in serum-free RPMI medium at 7.5 x 10^5 cells per ml. A mixture of DNA and transfection reagent (2µg of DNA; 3µl Fugene 6 transfection reagent; Roche) was then added and the cells were incubated at 37°C for 48 hours. The cells were then washed three times by centrifugation in RPMI + 10% FCS, before being suspended in fresh medium at 1 x 10^5 cells per ml. 68 ml of the resulting cell suspension was then plated out in a total of 226 wells in 96-well plates (Corning). After 48hrs, G418 (0.9mg/ml Active G418) was added to the medium to select for transfectants, and the cells were expanded by repeated subculture, keeping the populations from individual wells (which were considered clonal or oligoclonal expansions) separate. […]
A number of individual cell lines were obtained in this way, which expressed significant levels of sstr2 on the cell surface, detected by flow cytometry using the human-sstr2 antibody (Sigma, S0694; see Example 3 for details of the flow cytometry protocol used). […]

The next assay addresses sstr2 (Homo sapiens, UniProt P30874). Put plainly: [3H]-BN83250 equilibrium binding to THP-1 cells.

Structures are written as SMILES.

Sequence of sstr2 (P30874 whole entry): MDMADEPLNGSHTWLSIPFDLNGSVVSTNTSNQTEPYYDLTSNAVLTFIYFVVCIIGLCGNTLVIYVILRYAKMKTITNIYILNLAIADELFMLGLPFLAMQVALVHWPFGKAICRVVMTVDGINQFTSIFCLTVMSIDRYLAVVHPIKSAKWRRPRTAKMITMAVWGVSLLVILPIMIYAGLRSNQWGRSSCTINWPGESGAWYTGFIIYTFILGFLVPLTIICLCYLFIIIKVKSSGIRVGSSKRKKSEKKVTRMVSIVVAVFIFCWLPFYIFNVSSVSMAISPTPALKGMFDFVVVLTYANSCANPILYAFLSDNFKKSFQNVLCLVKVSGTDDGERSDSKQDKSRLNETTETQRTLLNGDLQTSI

Take `CCCCCCCCCCC(C)(C)C(=O)N[C@H]1CCCCNC1=O` [BN83250, (S)-3-(2',2'-dimethyldodecanoyl)amino-caprolactam]: in assay [1], the EC50 stood at 0.28 nM, the Emax stood at 100% and the “"Classical" : "BSCI" potency ratio Rat” value is listed as 0.0009. Further, the “inhibition of SDF-1α induced migration of Jurkat-D3B (in words)” value in the assay with Jurkat-D3B cells is given as “inhibits SDF-1α induced migration”. For the same compound, the EC50 in the assay with Jurkat-D3B cells (Homo sapiens, 100ng/ml SDF-1α, Jurkat-D3B, read-out: ED50 (the source's name)) is roughly 10 nM. In the assay with Jurkat-D3B cells (Jurkat-D3B versus parental Jurkat T cells), the “increase in BSCI sensitivity from ectopic expression of sstr2” value is “more than 100 fold”. On sstr2, the dissociation constant Kd was roughly 80 nM.

As for `CC(C)(C)C(=O)N[C@H]1CCCNC1=O` [Valerolactam, (S)-3-(2'2'-dimethylpropionoylamino)-tetrahydropyridin-2-one], in assay [1], the EC50 turned out to be 0.07 nM, the Emax came out at 100% and the “"Classical" : "BSCI" potency ratio Rat” value is reported as 0.0009. Moreover, the “inhibition of SDF-1α induced migration of Jurkat-D3B (in words)” value with Jurkat-D3B cells is given as “sensitive to inhibition”. Moreover, the “inhibition of BN83250 binding” value at sstr2 (1nM and above) is 80-90%. Further, at sstr2 (competition with [3H]-BN83250), the “Hill Slope” value is “approximately -1.0”. Besides, the EC50 at sstr2 (read-out: ED50 for competition with [3H]-BN83250 binding at sstr2, 10nM [3H]-BN83250) was roughly 0.05 nM.
